≈ marks a conversion by molar mass, not a printed value. Where “and” joins values, the source holds several entries; their conditions need not be identical. Equal values may be shown once. Read-outs that look alike come from different tables or passages of the source.
Experiments:
[1] = molecular target: Moloney murine leukemia virus reverse transcriptase (MoMuLV) (Moloney murine leukemia virus, UniProt P03355); assay: Test of reverse transcriptase inhibition; conditions: 3 μl inhibitor; 37° C. 2 hours; AZT at 0.625 microgram/ml
S. pyogenes = assay: MIC/MBC broth microdilution; assay type: cell-based
S. mutans = assay: MIC/MBC broth microdilution; assay type: cell-based
S gordonii = assay: MIC/MBC broth microdilution; assay type: cell-based; conditions: for MIC: read-out: MIC (minimum inhibitory concentration)
S. pneumoniae = assay: MIC/MBC broth microdilution; assay type: cell-based
S. faecalis = assay: MIC/MBC broth microdilution; assay type: cell-based
S. aureus = assay: MIC/MBC broth microdilution; assay type: cell-based
P. aeruginosa = assay: MIC/MBC broth microdilution; assay type: cell-based
E. coli = assay: MIC/MBC broth microdilution; assay type: cell-based
E. aerogenes = assay: MIC/MBC broth microdilution; assay type: cell-based
S. typhimurium = assay: MIC/MBC broth microdilution; assay type: cell-based; conditions: for MBC: read-out: MBC (minimum bactericidal concentration)
S arizona = assay: MIC/MBC broth microdilution; assay type: cell-based; conditions: for MBC: read-out: MBC (minimum bactericidal concentration); for MIC: read-out: MIC (minimum inhibitory concentration)
S. boydii = assay: MIC/MBC broth microdilution; assay type: cell-based; conditions: for MBC: read-out: MBC (minimum bactericidal concentration)
K. pneumoniae = assay: MIC/MBC broth microdilution; assay type: cell-based
K. oxytoca = assay: MIC/MBC broth microdilution; assay type: cell-based
E. cloacae = assay: MIC/MBC broth microdilution; assay type: cell-based
[2] = tested on: Pseudomonas aeruginosa ATCC #15442
Description: (§1) At 30 second intervals, 0.5 ml of each challenge culture was added to the appropriate dilutions of phenol, agitated, and replaced into the water bath: After the appropriate exposure times of 5, 10, and 15 minutes, a loopful of suspension was removed from the assay tubes and transferred to tubes of letheen broth (LETH).

[3] = tested on: Salmonella choleraesuis ATCC #10708; conditions: 5, 10 or 15 min
Description: as §1

[4] = tested on: Staphylococcus aureus ATCC #6538
Description: as §1

SMILES: Cc1cn([C@H]2C[C@H](N=[N+]=[N-])[C@@H](CO)O2)c(=O)[nH]c1=O [AZT, zidovudine (AZT)]
- % Inhibition (reverse transcriptase) [1]: 31.33% and 18.06%

SMILES: CCN1CCN(C(=O)N[C@@H](C(=O)N[C@@H]2C(=O)N3C(C(=O)O)=C(CSc4nnnn4C)CS[C@H]23)c2ccc(O)cc2)C(=O)C1=O [Cefaperazone]
- MBC (minimum bactericidal concentration) (S. pyogenes): 1.25 ppm
- MIC (minimum inhibitory concentration) (S. pyogenes): 0.313 ppm
- MBC (minimum bactericidal concentration) (S. mutans): > 5 ppm
- MIC (minimum inhibitory concentration) (S. mutans): 1.25 ppm
- MBC (minimum bactericidal concentration) (S gordonii): 1.25/1.25 ppm
- MIC (minimum inhibitory concentration) (S gordonii): 1.25/1.25 ppm
- MBC (minimum bactericidal concentration) (S. pneumoniae): 0.313/0.313 ppm
- MIC (minimum inhibitory concentration) (S. pneumoniae): 0.313/0.313 ppm
- MIC (minimum inhibitory concentration) (S. faecalis): >5.0 ppm
- MBC (minimum bactericidal concentration) (S. aureus): 5.0/5.0 ppm
- MIC (minimum inhibitory concentration) (S. aureus): 5.0/5.0 ppm
- MBC (minimum bactericidal concentration) (P. aeruginosa): 5.0 ppm
- MIC (minimum inhibitory concentration) (P. aeruginosa): 2.5 ppm
- MBC (minimum bactericidal concentration) (E. coli): > 5.0 ppm
- MIC (minimum inhibitory concentration) (E. coli): 0.625 ppm
- MBC (minimum bactericidal concentration) (E. aerogenes): > 5.0 ppm
- MIC (minimum inhibitory concentration) (E. aerogenes): 2.92 ppm
- MBC (minimum bactericidal concentration) (S. typhimurium): 2.5 ppm
- MIC (minimum inhibitory concentration) (S. typhimurium): 1.25 ppm
- MBC (minimum bactericidal concentration) (S arizona): > 5.0 ppm
- MIC (minimum inhibitory concentration) (S arizona): 0.833 ppm
- MBC (minimum bactericidal concentration) (S. boydii; S. boydii): 0.625/0.625 ppm
- MIC (minimum inhibitory concentration) (S. boydii; S. boydii): 0.625/0.625 ppm
- MIC (minimum inhibitory concentration) (K. pneumoniae): >5.0 ppm
- MBC (minimum bactericidal concentration) (K. oxytoca): > 5.0 ppm
- MIC (minimum inhibitory concentration) (K. oxytoca): 1.25 ppm

SMILES: CC[C@H]1OC(=O)[C@H](C)[C@@H](O[C@H]2C[C@@](C)(OC)[C@@H](O)[C@H](C)O2)[C@H](C)[C@@H](O[C@@H]2O[C@H](C)C[C@H](N(C)C)[C@H]2O)[C@](C)(O)C[C@@H](C)C(=O)[C@H](C)[C@@H](O)[C@]1(C)O [Erythromycin]
- MIC (S gordonii): 0.005 µg/mL (≈ 0.00681 µM)
- MBC (S arizona): > 5 µg/mL
- MBC (S. boydii; S. boydii): > 5 µg/mL
- MIC (S. boydii; S. boydii, read-out: MIC (minimum inhibitory concentration)): 5 µg/mL (≈ 6.81 µM)

SMILES: CC1COc2c(N3CCN(C)CC3)c(F)cc3c(=O)c(C(=O)O)cn1c23 (stereo not shown) [Ofloxacin]
- MBC (S gordonii; read-out: MBC (minimum bactericidal concentration)): 5 µg/mL (≈ 13.8 µM)
- MIC (S gordonii): 2.5 µg/mL (≈ 6.92 µM)
- MBC (E. aerogenes; Klebsiella aerogenes, read-out: MBC (minimum bactericidal concentration)): 0.156 µg/mL (≈ 0.432 µM)
- MIC (E. aerogenes; Klebsiella aerogenes, read-out: MIC (minimum inhibitory concentration)): 0.078 µg/mL (≈ 0.216 µM)
- MBC (S. typhimurium; Salmonella enterica): 0.156 µg/mL (≈ 0.432 µM)
- MIC (S. typhimurium; Salmonella enterica, read-out: MIC (minimum inhibitory concentration)): 0.078 µg/mL (≈ 0.216 µM)
- MIC (S arizona): 0.078 µg/mL (≈ 0.216 µM)
- MBC (S. boydii; S. boydii): 0.156 µg/mL (≈ 0.432 µM)

SMILES: CC1(C)S[C@@H]2[C@H](NC(=O)Cc3ccccc3)C(=O)N2[C@H]1C(=O)O [Penicillin G]
- MIC (minimum inhibitory concentration) (S. pyogenes): >5.0 ppm
- MBC (minimum bactericidal concentration) (S. mutans): > 5 ppm
- MIC (minimum inhibitory concentration) (S. mutans): 0.521 ppm
- MBC (minimum bactericidal concentration) (S gordonii): 0.039 ppm
- MIC (minimum inhibitory concentration) (S gordonii): 0.009 ppm
- MBC (minimum bactericidal concentration) (S. pneumoniae): 0.019/0.019 ppm
- MIC (minimum inhibitory concentration) (S. pneumoniae): 0.019/0.019 ppm
- MBC (minimum bactericidal concentration) (S. faecalis): 5.0/>5.0 ppm
- MIC (minimum inhibitory concentration) (S. faecalis): 5.0/>5.0 ppm
- MBC (minimum bactericidal concentration) (S. aureus): > 5.0 ppm
- MIC (minimum inhibitory concentration) (S. aureus): 2.5 ppm
- MBC (minimum bactericidal concentration) (P. aeruginosa): > 5.0 ppm
- MIC (minimum inhibitory concentration) (P. aeruginosa): 0.13 ppm
- MIC (minimum inhibitory concentration) (E. coli): >5.0 ppm
- MIC (minimum inhibitory concentration) (E. aerogenes): >5.0 ppm
- MIC (minimum inhibitory concentration) (E. cloacae): >5.0 ppm
- MIC (minimum inhibitory concentration) (S. typhimurium): >5.0 ppm
- MIC (minimum inhibitory concentration) (S arizona): >5.0 ppm
- MIC (minimum inhibitory concentration) (S. boydii): >5.0 ppm
- MIC (minimum inhibitory concentration) (K. pneumoniae): >5.0 ppm
- MIC (minimum inhibitory concentration) (K. oxytoca): >5.0 ppm

SMILES: CN(C)[C@@H]1C(O)=C(C(N)=O)C(=O)[C@@]2(O)C(O)=C3C(=O)c4c(O)cccc4[C@@](C)(O)[C@H]3C[C@@H]12 [Tetracycline]
- MBC (S. typhimurium; Salmonella enterica): > 5 µg/mL
- MBC (S arizona): > 5 µg/mL
- MIC (S arizona): 0.625 µg/mL (≈ 1.41 µM)
- MBC (S. boydii; S. boydii): > 5 µg/mL
- MBC (K. oxytoca; Klebsiella oxytoca, read-out: MBC (minimum bactericidal concentration)): > 5 µg/mL

SMILES: Oc1ccccc1 [phenol]
- growth after phenol treatment ([2]; 1:80 phenol, 5 or 10 min): showed growth
- growth after phenol treatment ([2]; 1:80 phenol, 15 min): no growth
- growth after phenol treatment ([2]; 1:90 phenol, 5, 10 or 15 min): showed growth
- growth after phenol treatment ([3]; 1:90 phenol): no growth
- growth after phenol treatment ([3]; 1:100 phenol): showed growth
- growth after phenol treatment ([4]; 1:60 phenol, 5 or 10 min): showed growth
- growth after phenol treatment ([4]; 1:60 phenol, 15 min): no growth
- growth after phenol treatment ([4]; 1:70 phenol, 5, 10 or 15 min): showed growth
